Laboratory results published in patent publication US7109193B2, “Tricyclic diazepines tocolytic oxytocin receptor antagonists” (Wyeth, priority 2001, dated 2006).

Target: T1, human vasopressin V1a receptor subtype (Homo sapiens, UniProt P37288)
T1 construct: host or cells: CHO cells (pZeoSV vector for the Thibonnier line)
Test: Vasopressin binding in Chinese Hamster Ovary cell membranes expressing human vasopressin V1a subtype receptors
Conditions: 100 nM, CHO cell membranes, [3H]Manning ligand, values without parentheses
How it was run: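 Displacement of [3H]Manning ligand (8 nM working solution) from human V1a receptors in CHO cell membranes, 25–50 μg protein per well. Incubation ran 60 min at room temperature in 50 mM Tris-HCl pH 7.4 with protease inhibitors, followed by filtration and scintillation counting. Results are given as IC50 or percent inhibition.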

T1 sequence (P37288 whole entry): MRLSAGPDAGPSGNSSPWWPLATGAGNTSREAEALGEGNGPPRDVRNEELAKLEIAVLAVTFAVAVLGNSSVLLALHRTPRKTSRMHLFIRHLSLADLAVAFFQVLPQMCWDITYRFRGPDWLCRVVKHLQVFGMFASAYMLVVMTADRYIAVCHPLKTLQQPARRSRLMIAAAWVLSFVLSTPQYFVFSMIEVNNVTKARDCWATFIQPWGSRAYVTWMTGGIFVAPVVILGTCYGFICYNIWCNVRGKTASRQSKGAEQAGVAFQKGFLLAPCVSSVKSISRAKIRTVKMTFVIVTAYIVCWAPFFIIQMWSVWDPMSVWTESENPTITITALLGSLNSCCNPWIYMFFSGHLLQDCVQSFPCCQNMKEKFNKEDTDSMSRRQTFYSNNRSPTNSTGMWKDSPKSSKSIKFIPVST

| inhibition at 0.1 µM | SMILES |
| --- | --- |
| 5% | O=C(c1ccc2n1Cc1ccccc1N(C(=O)c1ccc(-c3cccc4ccccc34)cc1Cl)C2)N1CCN(CCN2CCOCC2)CC1 [Example 215, {10-[2-Chloro-4-(1-naphthyl)benzoyl]-10,11-dihydro-5H-pyrrolo[2,1-c][1,4]benzodiazepin-3-yl}{4-[2-(4-morpholinyl)ethyl]-1-piperazinyl}methanone] |
| 41% | COc1ccccc1-c1ccc(C(=O)N2Cc3ccc(C(=O)N(C)C4CCN(C)C4)n3Cc3ccccc32)cc1OC (stereo not shown) [Example 193, 10-[(2,2′-Dimethoxy[1,1′-biphenyl]-4-yl)carbonyl]-N-methyl-N-(1-methyl-3-pyrrolidinyl)-10,11-dihydro-5H-pyrrolo[2,1-c][1,4]benzodiazepine-3-carboxamide] |
| 21% | COc1cc(-c2ccccc2C)c(Cl)cc1C(=O)N1Cc2ccc(C(=O)N3CCN(CCN4CCOCC4)CC3)n2Cc2ccccc21 [Example 217, {10-[(6-Chloro-3-methoxy-2′-methyl[1,1′-biphenyl]-4-yl)carbonyl]-10,11-dihydro-5H -pyrrolo[2,1-c][1,4]benzodiazepin-3-yl}{4-[2-(4-morpholinyl)ethyl]-1-piperazinyl}methanone] |
| 24% | COc1ccccc1-c1ccc(C(=O)N2Cc3ccc(C(=O)NCCC4CCCN4C)n3Cc3ccccc32)cc1 (stereo not shown) [Example 165, 10-[(2′-Methoxy[1,1′-biphenyl]-4-yl)carbonyl]-N-[2-(1-methyl-2-pyrrolidinyl)ethyl]-10,11-dihydro-5H-pyrrolo[2,1-c][1,4]benzodiazepine-3-carboxamide] |
| 35% | C=CCN1CCN(C(=O)c2ccc3n2Cc2ccccc2N(C(=O)c2ccc(-c4ccccc4C)c(OC)c2)C3)CC1 [Example 225, (4-Allyl-1-piperazinyl){10-[(2-methoxy-2′-methyl[1,1′-biphenyl]-4-yl)carbonyl]-10,11-dihydro-5H-pyrrolo[2,1-c][1,4]benzodiazepin-3-yl}methanone] |
| 8% | Cc1cc(C(=O)N2Cc3ccc(C(=O)NCCC4CCCN4C)n3Cc3ccccc32)ccc1-c1ccccc1C(F)(F)F (stereo not shown) [Example 174, N-[2-(1-Methyl-2-pyrrolidinyl)ethyl]-10-{[2-methyl-2′-(trifluoromethyl)[1,1′-biphenyl]-4-yl]carbonyl}-10,11-dihydro-5H-pyrrolo[2,1-c][1,4]benzodiazepine-3-carboxamide] |
| 64% | Cc1ccccc1-c1ccc(C(=O)N2Cc3ccc(C(=O)N4CCN(CCN(C)C)CC4)n3Cc3ccccc32)cc1 [Example 200, {4-[2-(Dimethylamino)ethyl]-1-piperazinyl}{10-[(2′-methyl[1,1′-biphenyl]-4-yl)carbonyl]-10,11-dihydro-5H-pyrrolo[2,1-c][1,4]benzodiazepin-3-yl}methanone] |
| 50% | Cc1ccccc1-c1ccc(C(=O)N2Cc3ccc(C(=O)N4CCN(CCN(C)C)CC4)n3Cc3ccccc32)cc1C [Example 198, {4-[2-(Dimethylamino)ethyl]-1-piperazinyl}{10-[(2,2′-dimethyl[1,1′-biphenyl]-4-yl)carbonyl]-10,11-dihydro-5H-pyrrolo[2,1-c][1,4]benzodiazepin-3-yl}methanone] |
| 23% | Cc1cc(C(=O)N2Cc3ccc(C(=O)N(C)C4CCN(C)C4)n3Cc3ccccc32)ccc1-c1ccccc1C(F)(F)F (stereo not shown) [Example 194, N-Methyl-N-(1-methyl-3-pyrrolidinyl)-10-{[2-methyl-2′-(trifluoromethyl)[1,1′-biphenyl]-4-yl]carbonyl}-10,11-dihydro-5H-pyrrolo[2,1-c][1,4]benzodiazepine-3-carboxamide] |
| 6% | COc1cc(C(=O)N2Cc3ccc(C(=O)N4CCN(C(C)C)CC4)n3Cc3ccccc32)ccc1-c1cccc2ccccc12 [Example 236, (4-Isopropyl-1-piperazinyl){10-[3-methoxy-4-(1-naphthyl)benzoyl]-10,11-dihydro-5H -pyrrolo[2,1-c][1,4]benzodiazepin-3-yl}methanone] |
| 20% | COc1cccc(-c2ccc(C(=O)N3Cc4ccc(C(=O)N5CCN(CCN6CCOCC6)CC5)n4Cc4ccccc43)cc2C)c1 [Example 208, {10-[(3′-Methoxy-2-methyl[1,1′-biphenyl]-4-yl)carbonyl]-10,11-dihydro-5H-pyrrolo[2,1-c][1,4]benzodiazepin-3-yl}{4-[2-(4-morpholinyl)ethyl]-1-piperazinyl}methanone] |
| 43% | COc1cc(C(=O)N2Cc3ccc(C(=O)N4CCN(CCN(C)C)CC4)n3Cc3ccccc32)ccc1-c1ccccc1C [Example 201, {4-[2-(Dimethylamino)ethyl]-1-piperazinyl}{10-[(2-methoxy-2′-methyl[1,1′-biphenyl]-4-yl)carbonyl]-10,11-dihydro-5H-pyrrolo[2,1-c][1,4]benzodiazepin-3-yl}methanone] |
| 1% | Cc1cc(C(=O)N2Cc3ccc(C(=O)N4CCN(C(C)C)CC4)n3Cc3ccccc32)ccc1-c1ccccc1C(F)(F)F [Example 240, (4-Isopropyl-1-piperazinyl)(10-{[2-methyl-2′-(trifluoromethyl)[1,1′-biphenyl]-4-yl]carbonyl}-10,11-dihydro-5H-pyrrolo[2,1-c][1,4]benzodiazepin-3-yl)methanone] |
| 7% | C=CCN1CCN(C(=O)c2ccc3n2Cc2ccccc2N(C(=O)c2ccc(-c4cccc5ccccc45)c(OC)c2)C3)CC1 [Example 231, (4-Allyl-1-piperazinyl){10-[3-methoxy-4-(1-naphthyl)benzoyl]-10,11-dihydro-5H -pyrrolo[2,1-c][1,4]benzodiazepin-3-yl}methanone] |
| 6% | O=C(NCCN1CCCCC1)c1ccc2n1Cc1ccccc1N(C(=O)c1ccc(-c3cccc4ccccc34)cc1Cl)C2 [Example 160, 10-[2-Chloro-4-(1-naphthyl)benzoyl]-N-[2-(1-piperidinyl)ethyl]-10,11-dihydro-5H-pyrrolo[2,1-c][1,4]benzodiazepine-3-carboxamide] |
| 8% | C=CCN1CCN(C(=O)c2ccc3n2Cc2ccccc2N(C(=O)c2ccc(-c4cccc5ccccc45)cc2Cl)C3)CC1 [Example 229, (4-Allyl-1-piperazinyl){10-[2-chloro-4-(1-naphthyl)benzoyl]-10,11-dihydro-5H-pyrrolo[2,1-c][1,4]benzodiazepin-3-yl}methanone] |
| 16% | COc1ccccc1-c1ccc(C(=O)N2Cc3ccc(C(=O)N4CCN(CCN(C)C)CC4)n3Cc3ccccc32)cc1OC [Example 204, {10-[(2,2′-Dimethoxy[1,1′-biphenyl]-4-yl)carbonyl]-10,11-dihydro-5H-pyrrolo[2,1-c][1,4]benzodiazepin-3-yl}{4-[2-(dimethylamino)ethyl]-1-piperazinyl}methanone] |
| 27% | COc1cccc(-c2ccc(C(=O)N3Cc4ccc(C(=O)N(C)C5CCN(C)CC5)n4Cc4ccccc43)cc2C)c1 [Example 176, 10-[(3′-Methoxy-2-methyl[1,1′-biphenyl]-4-yl)carbonyl]-N-methyl-N-(1-methyl-4-piperidinyl)-10,11-dihydro-5H-pyrrolo[2,1-c][1,4]benzodiazepine-3-carboxamide] |
| 43% | COc1cccc(-c2ccc(C(=O)N3Cc4ccc(C(=O)NCCC5CCCN5C)n4Cc4ccccc43)cc2OC)c1 (stereo not shown) [Example 172, 10-[(2,3′-Dimethoxy[1,1′-biphenyl]-4-yl)carbonyl]-N-[2-(1-methyl-2-pyrrolidinyl)ethyl]-10,11-dihydro-5H-pyrrolo[2,1-c][1,4]benzodiazepine-3-carboxamide] |
